Reference: US9890147B2 (BAYER PHARMA AKTIENGESELLSCHAFT, priority 2012, dated 2018)

Columns and labels:
BRD4 (BD1) = biological target: T1, BRD4 (BD1) (Homo sapiens, UniProt O60885); experiment: Binding assay BRD4/acetylated peptide H4 (TR-FRET protein-protein interaction assay)
T1 construct: with relatively long constructs also being possible, preferably amino acids 44-168; made in house; host or cells: E. coli
Method in brief: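 His6-BRD4 BD1 (aa 67-152, E. coli), usually 10 nM, with biotinylated tetra-acetylated H4 peptide in HEPES pH 7.5 buffer; 11 compound concentrations 0.1 nM–20 μM in duplicate, 10 min preincubation, 1 h at 22 °C then ≥3 h at 4 °C. TR-FRET 665/620 ratio; IC50 by 4-parameter fit.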

MOLM-13 cells = experiment: Cell proliferation assay (alamarBlue), MOLM-13; assay type: cell-based; conditions: Homo sapiens, 96 hours incubation, inhibition of cell proliferation
Method in brief: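 Cells in RPMI1640/10% FCS read by alamarBlue fluorescence (ex 530, em 590 nm) after overnight 37 °C incubation, then treated at 1E-5 to 1E-8 M for 96 h. Pre-treatment values subtracted from endpoint values and compared with buffer-only wells; IC50 is 50% proliferation inhibition.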

MV4-11 cells = experiment: Cell proliferation assay (alamarBlue), MV4-11; assay type: cell-based; conditions: Homo sapiens, 72 hours incubation, inhibition of cell proliferation
Description: (§1) In accordance with the invention, the capability of the substances to inhibit cell proliferation was determined Cell viability was determined using the alamarBlue® reagent (Invitrogen) in a Victor X3 Multilabel Reader (Perkin Elmer). The excitation wavelength was 530 nm and the emission wavelenth […].
The MV4-11 cells (ATCC, CRL 9591) were sown at a concentration of 5000 cells/well in 100 μl growth medium (RPMI1640, 10% FCS) on 96-well microtitre plates.
(§2) After an overnight incubation at 37° C., the fluorescence values (CI values) were determined. The plates were then treated with various substance dilutions (1E-5 M, 3E-6 M, 1E-6M, 3E-7 M, 1E-7 M, 3E-8 M, 1E-8 M) and incubated at 37° C. for 72 (MV4-11-, LOX-IMVI cells), 96 (MOLM-13-, B16F10-, MDA-MB-431-, Caov-3 cells), 120 (MOLP-8-, KMS-12-PE cells) or 168 (LAPC-4 cells) hours. The fluorescence values (CO values) were then determined. For the data analysis, the CI values were subtracted from the CO values and the results were compared between cells treated with different dilutions of the substance or with buffer solution only. These were used to calculate the IC 50 values (substance concentration required for 50% inhibition of cell proliferation).

LOX-IMVI cells = experiment: Cell proliferation assay (alamarBlue), LOX-IMVI; assay type: cell-based; conditions: Homo sapiens, 72 hours incubation, inhibition of cell proliferation
Description: as §1
The LOX-IMVI cells (NCI-60) were sown at a concentration of 1000 cells/well in 100 μl growth medium (RPMI1640, 10% FCS) on 96-well microtitre plates.
as §2

MOLP-8 cells = experiment: Cell proliferation assay (alamarBlue), MOLP-8; assay type: cell-based; conditions: Homo sapiens, 120 hours incubation, inhibition of cell proliferation
Description: as §1
The MOLP-8 cells (DSMZ, ACC 569) were sown at a concentration of 4000 cells/well in 100 μl growth medium (RPMI1640, 20% FCS) on 96-well microtitre plates.
as §2

KMS-12-PE cells = experiment: Cell proliferation assay (alamarBlue), KMS-12-PE; assay type: cell-based; conditions: Homo sapiens, 120 hours incubation, inhibition of cell proliferation
Description: as §1
The KMS-12-PE cells (DSMZ, ACC 606) were sown at a concentration of 4000 cells/well in 100 μl growth medium (RPMI1640, 20% FCS) on 96-well microtitre plates.
as §2

Caov-3 cells = experiment: Cell proliferation assay (alamarBlue), Caov-3; assay type: cell-based; conditions: Homo sapiens; inhibition of cell proliferation, Caov-3 (ovarian carcinoma), 96 hours
Description: as §1
The MDA-MB-231 cells (DSMZ, ACC 732) were sown at a concentration of 4000 cells/well in 100 μl growth medium (DMEM/Ham's F12 medium, 10% FCS) on 96-well microtitre plates. The Caov-3 cells (ATCC, HTB-75) were sown at a concentration of 2000 cells/well in 100 μl growth medium (MEM Earle's medium, 10% FCS) on 96-well microtitre plates.
as §2

Compound `CNC(=O)N1N=C(c2ccc(-c3cccc(NS(C)(=O)=O)c3)cc2)c2cc(OC)c(OC)cc2CC1C` (racemic) [Example 71, (±)-7,8-dimethoxy-N,4-dimethyl-1-{3′-[(methylsulphonyl)amino]biphenyl-4-yl}-4,5-dihydro-3H-2,3-benzodiazepine-3-carboxamide] has an IC50 (BRD4 (BD1)) of 40 nM, an IC50 (MOLM-13 cells) of 250 nM and an IC50 (MV4-11 cells) of 50 nM. For the same compound, the IC50 (LOX-IMVI cells) was 150 nM, the IC50 (MOLP-8 cells) was 90 nM and the IC50 (KMS-12-PE cells) was 80 nM. For the same compound, the IC50 (Caov-3 cells) was 150 nM.

For `CNC(=O)N1N=C(c2ccc(N3CCC3)cc2)c2cc(OC)c(OC)cc2CC1C` (racemic) [Example 128, (±)-1-[4-(azetidin-1-yl)phenyl]-7,8-dimethoxy-N,4-dimethyl-4,5-dihydro-3H-2,3-benzodiazepine-3-carboxamide], the IC50 (BRD4 (BD1)) was 30 nM, the IC50 (MOLM-13 cells) was 230 nM and the IC50 (LOX-IMVI cells) was 390 nM. The IC50 (MOLP-8 cells) was 100 nM, the IC50 (KMS-12-PE cells) was 100 nM and the IC50 (Caov-3 cells) was 320 nM.

`CNC(=O)N1N=C(c2ccc(N3CCC3)cc2)c2cc(OC)c(OC)cc2C[C@@H]1C` [Example 128.2, (4S)-1-[4-(azetidin-1-yl)phenyl]-7,8-dimethoxy-N,4-dimethyl-4,5-dihydro-3H-2,3-benzodiazepine-3-carboxamide] was tested, and the IC50 (BRD4 (BD1)) was 20 nM, the IC50 (MOLM-13 cells) was 150 nM and the IC50 (MV4-11 cells) was 70 nM. The IC50 (LOX-IMVI cells) was 190 nM, the IC50 (MOLP-8 cells) was 50 nM and the IC50 (KMS-12-PE cells) was 50 nM. It also gave an IC50 (Caov-3 cells) of 160 nM.

For `CNC(=O)N1N=C(c2ccc(N3CC(F)C3)cc2)c2cc(OC)c(OC)cc2CC1C` (racemic) [Example 129, (±)-1-[4-(3-fluoroazetidin-1-yl)phenyl]-7,8-dimethoxy-N,4-dimethyl-4,5-dihydro-3H-2,3-benzodiazepine-3-carboxamide], the IC50 (BRD4 (BD1)) was 50 nM, the IC50 (MOLM-13 cells) was 220 nM and the IC50 (MV4-11 cells) was 180 nM. The IC50 (LOX-IMVI cells) was 580 nM, the IC50 (MOLP-8 cells) was 150 nM and the IC50 (KMS-12-PE cells) was 120 nM. For the same compound, the IC50 (Caov-3 cells) was 420 nM.

With `CNC(=O)N1N=C(c2ccc(N3CCN(C)CC3)cc2)c2cc(OC)c(OC)cc2CC1C` (racemic) [Example 127, (±)-7,8-dimethoxy-N,4-dimethyl-1-[4-(4-methylpiperazin-1-yl)phenyl]-4,5-dihydro-3H-2,3-benzodiazepine-3-carboxamide] the IC50 (BRD4 (BD1)) was 80 nM, the IC50 (MOLM-13 cells) was 180 nM and the IC50 (MV4-11 cells) was 120 nM. The IC50 (LOX-IMVI cells) was 250 nM, the IC50 (MOLP-8 cells) was 90 nM and the IC50 (KMS-12-PE cells) was 90 nM. For the same compound, the IC50 (Caov-3 cells) was 240 nM.

For `CNC(=O)N1N=C(c2ccc(N3CCN(C(C)=O)CC3)cc2)c2cc(OC)c(OC)cc2CC1C` (racemic) [Example 132, (±)-1-[4-(4-acetylpiperazin-1-yl)phenyl]-7,8-dimethoxy-N,4-dimethyl-4,5-dihydro-3H-2,3-benzodiazepine-3-carboxamide], the IC50 (BRD4 (BD1)) was 30 nM, the IC50 (MOLM-13 cells) was 200 nM and the IC50 (MV4-11 cells) was 130 nM. It also gave an IC50 (LOX-IMVI cells) of 420 nM, an IC50 (MOLP-8 cells) of 120 nM and an IC50 (KMS-12-PE cells) of 110 nM. The IC50 (Caov-3 cells) was 320 nM.

For `CNC(=O)N1N=C(c2ccc(-c3c(C)noc3C)cc2)c2cc(OCCCN3CCOCC3)ccc2CC1C` (racemic) [Example 169, (±)-1-[4-(3,5-Dimethylisoxazol-4-yl)phenyl]-N,4-dimethyl-8-[3-(morpholin-4-yl)propoxy]-4,5-dihydro-3H-2,3-benzodiazepine-3-carboxamide], the IC50 (BRD4 (BD1)) was 30 nM, the IC50 (MOLM-13 cells) was 240 nM and the IC50 (LOX-IMVI cells) was 410 nM. For the same compound, the IC50 (MOLP-8 cells) was 120 nM, the IC50 (KMS-12-PE cells) was 120 nM and the IC50 (Caov-3 cells) was 370 nM.

In the case of `CNC(=O)N1N=C(c2ccc(-c3cnoc3)cc2)c2cc(OC)c(OC)cc2CC1C` (racemic) [Example 52, (±)-1-[4-(isoxazol-4-yl)phenyl]-7,8-dimethoxy-N-dimethyl-4,5-dihydro-3H-2,3-benzodiazepine-3-carboxamide], the IC50 (BRD4 (BD1)) is reported as 50 nM, the IC50 (MOLM-13 cells) is reported as 240 nM and the IC50 (MV4-11 cells) is reported as 140 nM. It also gave an IC50 (LOX-IMVI cells) of 450 nM, an IC50 (MOLP-8 cells) of 150 nM and an IC50 (KMS-12-PE cells) of 130 nM. For the same compound, the IC50 (Caov-3 cells) was 350 nM.

Compound `CNC(=O)N1N=C(c2ccc(N3CCNCC3)cc2)c2cc(OC)c(OC)cc2CC1C` (racemic) [Example 131, (±)-7,8-dimethoxy-N,4-dimethyl-1-[4-(piperazin-1-yl)phenyl]-4,5-dihydro-3H-2,3-benzodiazepine-3-carboxamide] has an IC50 (BRD4 (BD1)) of 50 nM, an IC50 (MOLM-13 cells) of 110 nM and an IC50 (MV4-11 cells) of 40 nM. It also gave an IC50 (LOX-IMVI cells) of 70 nM, an IC50 (MOLP-8 cells) of 30 nM and an IC50 (KMS-12-PE cells) of 30 nM. It also gave an IC50 (Caov-3 cells) of 50 nM.

For `CNC(=O)N1N=C(c2ccc(-c3cccnc3C(F)(F)F)cc2)c2cc(OC)c(OC)cc2CC1C` (racemic) [Example 48, (±)-7,8-dimethoxy-N,4-dimethyl-1-{4-[2-(trifluoromethyl)pyridin-3-yl]phenyl}-4,5-dihydro-3H-2,3-benzodiazepine-3-carboxamide], the IC50 (BRD4 (BD1)) was 110 nM, the IC50 (MOLM-13 cells) was 190 nM and the IC50 (MV4-11 cells) was 220 nM. It also gave an IC50 (LOX-IMVI cells) of 650 nM, an IC50 (MOLP-8 cells) of 250 nM and an IC50 (KMS-12-PE cells) of 260 nM. It also gave an IC50 (Caov-3 cells) of 470 nM.

Compound `CNC(=O)N1N=C(c2ccc(-n3nc(-c4ccccc4)cc3C)cc2)c2cc(OC)c(OC)cc2C[C@@H]1C` [Example 147.1, (4S)-7,8-dimethoxy-N,4-dimethyl-1-[4-(5-methyl-3-phenyl-1H-pyrazol-1-yl)phenyl]-4,5-dihydro-3H-2,3-benzodiazepine-3-carboxamide] has an IC50 (BRD4 (BD1)) of 30 nM, an IC50 (MOLM-13 cells) of 60 nM and an IC50 (MV4-11 cells) of 20 nM. The IC50 (LOX-IMVI cells) was 510 nM, the IC50 (MOLP-8 cells) was 20 nM and the IC50 (KMS-12-PE cells) was 30 nM. It also gave an IC50 (Caov-3 cells) of 80 nM.

For `CNC(=O)N1N=C(c2ccc(-n3nc(-c4ccccc4)cc3C3CC3)cc2)c2cc(OC)c(OC)cc2CC1C` (racemic) [Example 148, (±)-1-[4-(5-cyclopropyl-3-phenyl-1H-pyrazol-1-yl)phenyl]-7,8-dimethoxy-N,4-dimethyl-4,5-dihydro-3H-2,3-benzodiazepine-3-carboxamide], the IC50 (BRD4 (BD1)) was 40 nM, the IC50 (MOLM-13 cells) was 80 nM and the IC50 (MV4-11 cells) was 70 nM. For the same compound, the IC50 (LOX-IMVI cells) was 250 nM, the IC50 (MOLP-8 cells) was 90 nM and the IC50 (KMS-12-PE cells) was 80 nM. It also gave an IC50 (Caov-3 cells) of 300 nM.

Work on `CNC(=O)N1N=C(c2ccc(-c3cn(C)nn3)cc2)c2cc(OC)c(OC)cc2CC1C` (racemic) [Example 45, (±)-7,8-dimethoxy-N,4-dimethyl-1-[4-(1-methyl-1H-1,2,3-triazol-4-yl)phenyl]-4,5-dihydro-3H-2,3-benzodiazepine-3-carboxamide] yielded an IC50 (BRD4 (BD1)) of 40 nM, an IC50 (MOLM-13 cells) of 230 nM and an IC50 (MV4-11 cells) of 140 nM. For the same compound, the IC50 (LOX-IMVI cells) was 350 nM, the IC50 (MOLP-8 cells) was 130 nM and the IC50 (KMS-12-PE cells) was 130 nM. The IC50 (Caov-3 cells) was 240 nM.

In the case of `CNC(=O)N1N=C(c2ccc(N3CCOC3=O)cc2)c2cc(OC)c(OC)cc2C[C@@H]1C` [Example 34.1, (4S)-7,8-Dimethoxy-N,4-dimethyl-1-[4-(2-oxooxazolidin-3-yl)phenyl]-4,5-dihydro-3H-2,3-benzodiazepine-3-carboxamide], the IC50 (BRD4 (BD1)) is reported as 40 nM, the IC50 (MOLM-13 cells) is reported as 240 nM and the IC50 (MV4-11 cells) is reported as 120 nM. It also gave an IC50 (LOX-IMVI cells) of 440 nM, an IC50 (MOLP-8 cells) of 80 nM and an IC50 (KMS-12-PE cells) of 80 nM. For the same compound, the IC50 (Caov-3 cells) was 310 nM.

With `CNC(=O)N1N=C(c2ccc(N3CCN(C(=O)C(F)(F)F)CC3)cc2)c2cc(OC)c(OC)cc2CC1C` (racemic) [Example 133, (±)-7,8-dimethoxy-N,4-dimethyl-1-{4-[4-(trifluoroacetyl)piperazin-1-yl]phenyl}-4,5-dihydro-3H-2,3-benzodiazepine-3-carboxamide] the IC50 (BRD4 (BD1)) was 50 nM, the IC50 (MOLM-13 cells) was 180 nM and the IC50 (MV4-11 cells) was 80 nM. For the same compound, the IC50 (LOX-IMVI cells) was 170 nM, the IC50 (MOLP-8 cells) was 70 nM and the IC50 (KMS-12-PE cells) was 80 nM. For the same compound, the IC50 (Caov-3 cells) was 180 nM.
